The results in this text go back to BindingDB's records for doi:10.1021/jm00164a014 (Wellcome Research Laboratories, 1990).

Experiment [1] concerns the target Trifunctional purine biosynthetic protein adenosine-3 (Mus musculus) (UniProt Q64737). In words: Inhibition activity against Glycinamide ribonucleotide transformylase (GAR-TFase) from L cell.
The target in another experiment is ATIC (Sus scrofa). Description: Inhibition activity against AICAR formyltransferase from hog liver.

Chain of Trifunctional purine biosynthetic protein adenosine-3 (Mus musculus) (Q64737 whole entry, looked up): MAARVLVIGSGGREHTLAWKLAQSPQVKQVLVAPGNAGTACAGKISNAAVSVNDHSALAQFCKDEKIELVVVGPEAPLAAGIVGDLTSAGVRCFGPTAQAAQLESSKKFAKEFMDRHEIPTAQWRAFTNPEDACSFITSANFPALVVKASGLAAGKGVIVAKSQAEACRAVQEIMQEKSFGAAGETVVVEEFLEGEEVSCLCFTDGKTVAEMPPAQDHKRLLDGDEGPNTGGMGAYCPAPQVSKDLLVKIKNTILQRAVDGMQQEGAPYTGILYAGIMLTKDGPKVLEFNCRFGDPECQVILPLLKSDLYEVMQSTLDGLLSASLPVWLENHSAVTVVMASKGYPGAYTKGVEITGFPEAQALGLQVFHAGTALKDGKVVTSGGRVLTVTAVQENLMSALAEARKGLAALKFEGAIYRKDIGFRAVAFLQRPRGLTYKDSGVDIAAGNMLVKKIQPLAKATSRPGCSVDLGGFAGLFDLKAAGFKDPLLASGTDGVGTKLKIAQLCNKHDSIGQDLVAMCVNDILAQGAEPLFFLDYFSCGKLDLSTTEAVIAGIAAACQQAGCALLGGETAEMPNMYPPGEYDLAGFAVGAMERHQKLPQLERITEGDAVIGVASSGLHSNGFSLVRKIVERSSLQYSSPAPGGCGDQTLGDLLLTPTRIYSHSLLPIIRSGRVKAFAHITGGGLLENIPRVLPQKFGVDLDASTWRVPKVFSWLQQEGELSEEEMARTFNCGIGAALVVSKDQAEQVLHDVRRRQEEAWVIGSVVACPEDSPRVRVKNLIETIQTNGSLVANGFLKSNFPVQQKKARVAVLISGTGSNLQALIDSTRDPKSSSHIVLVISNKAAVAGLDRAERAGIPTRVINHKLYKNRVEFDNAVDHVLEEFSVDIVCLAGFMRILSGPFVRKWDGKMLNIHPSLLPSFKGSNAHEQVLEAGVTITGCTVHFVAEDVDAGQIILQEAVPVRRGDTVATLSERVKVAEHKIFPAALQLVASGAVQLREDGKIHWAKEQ

For the compound `CN(CCCc1c(N)nc(N)[nH]c1=O)c1ccc(C(=O)NC(CCC(=O)O)C(=O)O)cc1` (configuration not stated), the IC50 in experiment [1] came out at 4.3 µM; against ATIC (Sus scrofa), 68 µM.
